Experimental data: ChEMBL document CHEMBL1129767, “Synthesis and properties of 25 and 35 linked -oligoriboadenylates” (Bioorg Med Chem Lett, 1996)

Assays:
Format in all cases: ADME
[1] = Biological half life period of compound was measured against RNaseT2; NC: Not cleaved
[2] = Biological half life period of compound was measured against nuclease P1;NC: Not cleaved
[3] = Biological half life period of compound was measured against snake venom phosphodiesterase (SVPDE); conditions: serpentes
[4] = Biological half life period of compound was measured against RNaseT2; N C: Not cleaved
[5] = Biological half life period of compound was measured against nuclease P1.
[6] = Biological half life period of compound was measured against RNaseT2.; conditions: RNase T2

For `Nc1ncnc2c1ncn2C1OC(COP(=O)(O)O[C@@H]2[C@H](O)[C@@H](CO)O[C@@H]2n2cnc3c(N)ncnc32)[C@@H](O)[C@H]1O` (single isomer, unassigned), the T1/2 [1] was “Not cleaved”, the T1/2 [2] was “Not cleaved” and the half-life [3] was 18 min.

For `Nc1ncnc2c1ncn2C1OC(COP(=O)(O)O[C@@H]2C(CO)O[C@H](n3cnc4c(N)ncnc43)[C@@H]2O)[C@@H](O)[C@H]1O` (single isomer, unassigned), the T1/2 [4] was “Not cleaved”, the half-life [5] was 120 min and the half-life [3] was 31.8 min.

With `Nc1ncnc2c1ncn2C1O[C@H](COP(=O)(O)O[C@@H]2[C@H](O)[C@@H](CO)O[C@H]2n2cnc3c(N)ncnc32)[C@@H](O)[C@H]1O` (some centres not stated) the T1/2 [4] was “Not cleaved”, the T1/2 [2] was “Not cleaved” and the half-life [3] was 3.6 min.

`Nc1ncnc2c1ncn2C1O[C@H](COP(=O)(O)O[C@H]2[C@@H](O)[C@H](n3cnc4c(N)ncnc43)O[C@@H]2CO)[C@@H](O)[C@H]1O` (some centres not stated) showed a half-life [6] of 12.6 min, a half-life [5] of 7.8 min and a half-life [3] of 3.6 min.
